Experimental data reported in patent publication US20230087941A1, “COMBINATIONS” (Recurium IP Holdings, LLC, priority 2019, published 2023).

Assays:
[1] = test system: ZR-75-1-R breast cancer tumor cells (Tamoxifen resistant); test: ZR-75-1-R xenograft tumor model; format: in vivo; conditions: oral, daily, 28 days, ZR-75-1-R xenograft in BALB/c nude mice
Method: (§1) ZR-75-1-R breast cancer tumor cells (Tamoxifen resistant) were maintained in vitro as monolayer culture in RPMI1640 Medium supplemented with 10% fetal bovine serum and 10 μM tamoxifen at 37° C. in an atmosphere of 5% CO2 in air. The cells growing in an exponential growth phase were harvested and counted for tumor inoculation. BALB/c nude mice were implanted subcutaneously in the right flank with ZR-75-1-R tumor cells (1×10^7) in 100 μl PBS:Matrigel (1:1). When tumors reached approximately 191 mm^3, animals were randomly distributed into treatment groups of 10 animals each and dosed orally, daily with vehicle, freebase Compound (A) at 30 mg/kg, Compound 1 at 80 mg/kg, or compound A at 30 mg/kg in combination with Compound 1 at 80 mg/kg for 28 days. In addition, estradiol benzoate injections were delivered by s.c. (40 μg/20 μL, twice weekly). Tumor volumes were evaluated twice per week to calculate tumor volume over time, and mice were weighed twice per week as a surrogate for signs of toxicity. Tumor growth inhibition (TGI) was calculated using the following equation TGI=(1−(Td−T0)/(Cd−C0))×100%. Td and Cd are the mean tumor volumes of the treated and control animals, and TO and CO are the mean tumor volumes of the treated and control animals at the start of the experiment.

[2] = test system: MCF-7 breast cancer tumor cells; test: MCF-7 xenograft tumor model; format: in vivo; conditions: Compound 1 80 mg/kg, oral, daily; MCF-7 xenograft in BALB/c nude mice
Method: as §1, with “In addition, estradiol benzoate injections were delivered by s.c. (40 μg/20 μL, twice weekly).” left out, “Tumor growth inhibition (TGI) was calculated using the following equation TGI=(1−(Td−T0)/(Cd−C0))×100%. Td and Cd are the mean tumor volumes of the treated and control animals, and TO and CO are the mean tumor volumes of the treated and control animals at the start of the experiment.” left out
Example 2: MCF-7 breast cancer tumor cells were cultured in vitro in DMEM Medium supplemented with 15% fetal bovine serum at 37° C. in an atmosphere of 5% CO2 in air. The cells growing in an exponential growth phase were harvested and counted for tumor inoculation. […] Tumor volumes were evaluated twice per week to calculate tumor volume over time, and mice were weighed twice per week as a surrogate for signs of toxicity. TGI values were calculated using the equation provide in Example 1.

Row | SMILES | Tumor growth inhibition (TGI) ([1]; Compound 1 80 mg/kg) | Tumor growth inhibition (TGI) [2] | Tumor growth inhibition (TGI) ([1]; freebase Compound (A) 30 mg/kg)
1 | C=CCn1c(=O)c2cnc(Nc3ccc(N4CCN(C)CC4)cc3)nc2n1-c1ccc2c(n1)[C@@](O)(CC)CC2 [Compound 1] | 69.9% | 132.6% | 
2 | C[C@@H]1Cc2c([nH]c3ccccc23)[C@@H](c2c(F)cc(/C=C/C(=O)O)cc2F)N1C12CC(C1)C2 [Compound (A)] |  |  | 43.0%
